Tests used:
[1] = test system: oxazolone-induced DTH; assay: Oxazolone-induced delayed-type hypersensitivity (DTH), ear swelling; format: in vivo, BALB/c mice; conditions: oral, 1 hour before oxazolone challenge; compared with the control
From the text: A delayed-type hypersensitivity (DTH) reaction is an expression of cell-mediated immunity and plays a major role in the pathology and chronicity of many inflammatory disorders. Delayed-type hypersensitivity (DTH) reactions can be induced by various allergens, including oxazolone, 2,4-dinitrofluorobenzene (DNFB) and sheep red blood cells (SRBCs). One of the most characteristic DTH phenomena is contact hypersensitivity, which is characterized by swelling and by increased tissue levels of cytokines. Contact hypersensitivity (CHS) is a T cell-mediated immune reaction in response to cutaneous sensitization and challenge with reactive haptens that are capable of binding directly to soluble and cell-associated proteins and recognized by T cells in the context of self-MHC products. The cells that recognize antigen-protein complex in the skin are the Langerhans cells (LCs). After topically allergen application, Langerhans cells (LCs), the major antigen-presenting cells (APCs) for the induction of immune responses in skin, show enhanced expression of surface MHC class II molecules, and start to emigrate from the skin to regional lymph nodes where specific lymphocyte activation is thought to occur. After a second contact with the hapten, T cells are first recruited into tissues and then activated by antigen-presenting cells to produce cytokines that mediate local inflammation. Myeloperoxidase (MPO) is an enzyme exclusively present in neutrophil granules, which is commonly used as an index of granulocyte infiltration, and its inhibition is indicative of an anti-inflammatory action.
The goal of the present study is to examine the effects of Compounds A, B and C on oxazolone-induced DTH. […]
Ear swelling response was determined by ear thickness measured with a micrometer before and 24 hours after oxazolone challenge and reported as the mean change in ear thickness (ΔT±S.E.M.). Percent suppression of ear swelling response was calculated as % suppression=[1−(ΔT of sensitized mice exposed to experimental treatment/ΔT of sensitized mice exposed to vehicle treatment)]×100. […]

[2] = test system: EAE; assay: EAE model for multiple sclerosis, clinical score; format: in vivo, CSJL/F1 mice
Procedure: The EAE model in CSJL/F1 mice is an established model for multiple sclerosis. Disease is induced in all mice by the injection of the encephalitogenic emulsion (MSCH/CFA, 0.05 ml injected into the left foot-pad of each mouse). Treatment with Compound A at 10 and 20 mg/kg or solvent (5% DMSO, 10% PEG400, 5% Solutol HS15, 5% Tween 80) by intraperitoneal injection, was started from day 1 of the study and administered twice daily in the first 9 days and then once daily until the end of the study. Scoring of EAE clinical signs were initiated from the 10th day post-EAE induction and continued daily. The clinical signs were recorded according to a grading system described in the table 1.

[3] = test system: D122 Lewis lung cancer cells; assay: Formation of lung cancer metastasis, D122 cells injected into tail vein; format: in vivo, C57BL mice; conditions: 20 mg/kg intraperitoneal twice daily for 28 days
Procedure: Suppressive activity against formation of lung cancer metastasis was tested using D122 Lewis lung cancer cells injected into the tail vein of male C57BL mice. Animals were treated twice daily by intraperitoneal injection of Compound A at 20 mg/kg or solvent (5% DMSO, 10% PEG400, 5% Solutol HS15, 5% Tween 80). Treatment was continued for 28 days. On day 33, animals were sacrificed, lungs were removed and weighed. When the Compound A and vehicle groups are compared, there is about a 50% decrease in added lung weight in the Compound A group (FIG. 3). The average weight gain in the control group was 250 mg while in the Compound A group it was only 125 mg. Analyzing the data using two tailed T test indicate a the data is significant (pValue=0.0085). The effect seen following administration of Compound A, supports the claim that this compound has anti-metastatic activity.

[4] = test system: A375 cells; assay: Viability of A375 cancer cells (WST-1 reagent); format: cell-based; conditions: viability 72 hours post treatment
Procedure: A375 cells (CRL-1619, Melanoma cancer cells, American Type Culture Collection (“ATCC”), Manassas Va., USA) were cultured with RPMI and 10% FBS (300 cells per well). Twenty-four hours after seeding the cells were treated with different concentrations of Compound A. Viability of the cells was tested seventy-two hours post treatment using WST-1 reagent (Roche). The LD50s were calculated using Prism software (Graphpad). Compound A killed the A375 cancer cells with LD50 of 20 μM (FIG. 2A).

[5] = test system: A375 melanoma cell line; assay: TRANSWELL cell migration of A375 melanoma cells; format: cell-based; conditions: Homo sapiens, A-375, 24 hours, read-out: IC50 of inhibitory effect on cell-migration
Procedure: The A375 cells were cultured with RPMI and 10% FBS. The cells were starved for 24 hours in medium without FBS. At the end of the starvation, 5×10^4 cells in medium without FBS were placed in the upper chamber of 24-well, TRANSWELL apparatus (Corning TRANSWELL® polycarbonate membrane inserts, 5 μm pore size with solvent (DMSO/PEG400) or different concentrations of Compound A, B, C or D. Medium with FBS and compound A, B, C or D was added to the bottom chamber. Twenty-four hours later the cells from the upper chamber were removed with a cotton swab. Cells that migrated to the lower side of the membrane were stained with Calcein-AM (Sigma) and images were taken with a fluorescence microscope. The number of migrating cells was quantified by Image J software and the IC50 values were calculated using Prism software (Graphpad).

SMILES	anti-inflammatory activity in DTH study (FIG. 7) [1]	effect on EAE clinical signs ([2]; 10 mg/kg intraperitoneal)	EAE clinical signs relative to the score for water and vehicle controls ([2]; 20 mg/kg intraperitoneal)	average weight gain (added lung weight) ([3]; day 33, control group 250 mg) [mg]	decrease in added lung weight vs vehicle group ([3]; lungs weighed on day 33) [%]	LD50 (killing of A375 cancer cells) [4] [µM]	IC50 [5] [nM]
O=c1c2ccccc2nc(/C=C/c2ccc(O)cc2)n1-c1cccc([N+](=O)[O-])c1 [Compound A, 2-[2-(4-Hydroxyphenyl)-vinyl]-3-(3-nitrophenyl)-4-quinazolone]	same anti-inflammatory activity as the control	No effect	about half	125	~50	20	100
COc1ccc(/C=C/c2nc3ccccc3c(=O)n2-c2cccc([N+](=O)[O-])c2)cc1 [Compound B, (E)-2-(4-methoxystyryl)-3-(3-nitrophenyl)quinazolin-4(3H)-one]	same anti-inflammatory activity as the control						45
O=c1c2ccccc2nc(/C=C/c2ccc(Br)cc2)n1-c1cccc([N+](=O)[O-])c1 [Compound C, (E)-2-(4-bromostyryl)-3-(3-nitrophenyl)quinazolin-4(3H)-one]	same anti-inflammatory activity as the control						920
Cn1ccc(/C=C/c2nc3ccccc3c(=O)n2-c2cccc(N(O)O)c2)n1 [Compound D, (E)-3-(3-(dihydroxyamino)phenyl)-2-(2-(1-methyl-1H-pyrazol-3-yl)vinyl)quinazolin-4(3H)-one]							61

Source: patent publication US20110129463A1, “Quinazolin-4(3A)-One Derivatives and Methods of Use Thereof” (Proteologics, Ltd., priority 2009, published 2011)
